Entries after “also recorded” stand apart in the source; their conditions may differ.
Assay: solubility in solvents and buffers
Assay type: physicochemical

For `CCCCCCCCCCCC/C=C/CCCCC(=O)Oc1nc2ccccc2nc1OP(O)(=S)OCCCCCCCCCCCCCCCC` (stereo not shown) [streptolipin, Nonadeca-6-enoic acid-3-(hexadecyloxy-hydroxy-thiophosphoryloxy)-quinoxalin-2-yl ester], the Solubility response (5% acetic acid) was “Insoluble”, the Solubility response (5% sodium bicarbonate) was “Insoluble” and the Solubility response (5% sodium hydroxide) was “Insoluble”. For the same compound, the Solubility response (Acetone) was “Soluble”, the Solubility response (Acetonitrile) was “slightly soluble; also recorded: Sparingly soluble” and the Solubility response (Chloroform) was “Soluble”. The Solubility response (Diethyl ether) was “slightly soluble; also recorded: Sparingly soluble”, the Solubility response (Dimethyl sulphoxide) was “Soluble” and the Solubility response (Ethanol) was “Sparingly soluble”. The Solubility response (Ethyl acetate) was “slightly soluble; also recorded: Sparingly soluble”, the Solubility response (Hexane) was “Sparingly soluble” and the Solubility response (Methanol) was “slightly soluble; also recorded: Sparingly soluble”. The Solubility response (Phosphate buffer (pH 7.4-8.0)) was “Insoluble”, the Solubility response (acetate buffer (pH 5.0, 6.0)) was “Insoluble” and the Solubility response (tris buffer (pH 8.0, 9.0)) was “Insoluble”. The Solubility response (water) was “Insoluble”.

Reference: patent US7737146B2, “Compound, useful for pancreatic lipase inhibition and the process for isolation thereof” (Council of Scientific and Industrial Research, priority 2005, dated 2010)
